According to ChEMBL document CHEMBL2010711, “Synthesis and comparative evaluation of 4-oxa- and 4-aza-podophyllotoxins as antiproliferative microtubule destabilizing agents” (Bioorg Med Chem Lett, 2012):
Calls of active or inactive are those of the source.

How the values were obtained:
UACC-62 = experiment: Cytotoxicity against human UACC62 cells after 48 hrs by trypan blue dye exclusion assay; format: functional; conditions: UACC-62, 48 h
NCI/ADR-RES = experiment: Cytotoxicity against human NCI/ADR-RES cells after 48 hrs by trypan blue dye exclusion assay; format: functional
KM12 = experiment: Cytotoxicity against human KM12 cells after 48 hrs by trypan blue dye exclusion assay; format: functional; conditions: KM12, 48 h
OVCAR-8 = experiment: Cytotoxicity against human OVCAR8 cells after 48 hrs by trypan blue dye exclusion assay; format: functional; conditions: OVCAR-8, 48 h
HOP-92 = experiment: Cytotoxicity against human HOP92 cells after 48 hrs by trypan blue dye exclusion assay; format: functional; conditions: HOP-92, 48 h
OVCAR-4 = experiment: Cytotoxicity against human OVCAR4 cells after 48 hrs by trypan blue dye exclusion assay; format: functional; conditions: OVCAR-4, 48 h
SR = experiment: Cytotoxicity against human SR cells after 48 hrs by trypan blue dye exclusion assay; format: functional
SK-MEL-28 = experiment: Cytotoxicity against human SK-MEL-28 cells after 48 hrs by trypan blue dye exclusion assay; format: functional; conditions: SK-MEL-28, 48 h
SN12C = experiment: Cytotoxicity against human SN12C cells after 48 hrs by trypan blue dye exclusion assay; format: functional
HT-29 = experiment: Cytotoxicity against human HT-29 cells after 48 hrs by trypan blue dye exclusion assay; format: functional; conditions: HT-29, 48 h
ACHN = experiment: Cytotoxicity against human ACHN cells after 48 hrs by trypan blue dye exclusion assay; format: functional
SNB-75 = experiment: Cytotoxicity against human SNB75 cells after 48 hrs by trypan blue dye exclusion assay; format: functional; conditions: SNB-75, 48 h
IGROV-1 = experiment: Cytotoxicity against human IGROV1 cells after 48 hrs by trypan blue dye exclusion assay; format: functional; conditions: IGROV-1, 48 h
HL-60(TB) = experiment: Cytotoxicity against human HL-60(TB) cells after 48 hrs by trypan blue dye exclusion assay; format: functional; conditions: HL-60, 48 h
MCF7 = experiment: Cytotoxicity against human MCF7 cells after 48 hrs by trypan blue dye exclusion assay; format: functional; conditions: MCF7, 48 h
A549 = experiment: Cytotoxicity against human A549 cells after 48 hrs by trypan blue dye exclusion assay; format: functional; conditions: A549, 48 h
OVCAR-5 = experiment: Cytotoxicity against human OVCAR5 cells after 48 hrs by trypan blue dye exclusion assay; format: functional; conditions: OVCAR-5, 48 h
SF-268 = experiment: Cytotoxicity against human SF268 cells after 48 hrs by trypan blue dye exclusion assay; format: functional; conditions: SF-268, 48 h
RXF 393 = experiment: Cytotoxicity against human RXF393 cells after 48 hrs by trypan blue dye exclusion assay; format: functional; conditions: RXF 393, 48 h
SK-MEL-2 = experiment: Cytotoxicity against human SK-MEL-2 cells after 48 hrs by trypan blue dye exclusion assay; format: functional; conditions: SK-MEL-2, 48 h
SK-MEL-5 = experiment: Cytotoxicity against human SK-MEL-5 cells after 48 hrs by trypan blue dye exclusion assay; format: functional; conditions: SK-MEL-5, 48 h
RPMI-8226 = experiment: Cytotoxicity against human RPMI8226 cells after 48 hrs by trypan blue dye exclusion assay; format: functional; conditions: RPMI-8226, 48 h
Paracentrotus lividus [1] = experiment: Antimitotic activity against Paracentrotus lividus embryo assessed as cleavage alteration at 2 fold less effective threshold concentration after 2.5 to 6 hrs; format: functional, organism-based
BT-549 = experiment: Cytotoxicity against human BT549 cells after 48 hrs by trypan blue dye exclusion assay; format: functional; conditions: BT-549, 48 h
NCI-H23 = experiment: Cytotoxicity against human NCI-H23 cells after 48 hrs by trypan blue dye exclusion assay; format: functional; conditions: NCI-H23, 48 h
OVCAR-3 = experiment: Cytotoxicity against human OVCAR3 cells after 48 hrs by trypan blue dye exclusion assay; format: functional; conditions: OVCAR-3, 48 h
Paracentrotus lividus [2] = experiment: Microtubule destabilizing activity in Paracentrotus lividus embryo assessed as concentration required to cause 100% embryo spinning after 15 mins to 20 hrs; format: functional
Paracentrotus lividus [3] = experiment: Antimitotic activity against Paracentrotus lividus embryo assessed as cleavage arrest at 2 fold less effective threshold concentration after 2.5 to 6 hrs; format: functional, organism-based
Paracentrotus lividus [4] = experiment: Antimitotic activity against Paracentrotus lividus embryo assessed as concentration required to cause 100% cleavage arrest after 2.5 to 6 hrs; format: functional
SF-295 = experiment: Cytotoxicity against human SF295 cells after 48 hrs by trypan blue dye exclusion assay; format: functional; conditions: SF-295, 48 h
CAKI-1 = experiment: Cytotoxicity against human CAKI-1 cells after 48 hrs by trypan blue dye exclusion assay; format: functional; conditions: CAKI-1, 48 h
Paracentrotus lividus [5] = experiment: Antimitotic activity against Paracentrotus lividus embryo assessed as concentration required to cause 100% cleavage alteration after 2.5 to 6 hrs; format: functional
A498 = experiment: Cytotoxicity against human A498 cells after 48 hrs by trypan blue dye exclusion assay; format: functional; conditions: A498, 48 h
DU-145 = experiment: Cytotoxicity against human DU145 cells after 48 hrs by trypan blue dye exclusion assay; format: functional; conditions: DU-145, 48 h
NCI-H226 = experiment: Cytotoxicity against human NCI-H226 cells after 48 hrs by trypan blue dye exclusion assay; format: functional; conditions: NCI-H226, 48 h
SNB-19 = experiment: Cytotoxicity against human SNB19 cells after 48 hrs by trypan blue dye exclusion assay; format: functional; conditions: SNB-19, 48 h
SK-OV-3 = experiment: Cytotoxicity against human SKOV3 cells after 48 hrs by trypan blue dye exclusion assay; format: functional; conditions: SK-OV-3, 48 h
NCI-H522 = experiment: Cytotoxicity against human NCI-H522 cells after 48 hrs by trypan blue dye exclusion assay; format: functional; conditions: NCI-H522, 48 h
UO-31 = experiment: Cytotoxicity against human UO31 cells after 48 hrs by trypan blue dye exclusion assay; format: functional; conditions: UO-31, 48 h
Paracentrotus lividus [6] = experiment: Microtubule destabilizing activity in Paracentrotus lividus embryo assessed as embryo spinning at 2 fold less effective threshold concentration after 15 mins to 20 hrs; format: functional, organism-based
MOLT-4 = experiment: Cytotoxicity against human MOLT4 cells after 48 hrs by trypan blue dye exclusion assay; format: functional; conditions: MOLT-4, 48 h
U-251 = experiment: Cytotoxicity against human U251 cells after 48 hrs by trypan blue dye exclusion assay; format: functional; conditions: U-251, 48 h
[7] = Cytotoxicity against human Hs 578T cells after 48 hrs by trypan blue dye exclusion assay; format: functional
NCI-H460 = experiment: Cytotoxicity against human NCI-H460 cells after 48 hrs by trypan blue dye exclusion assay; format: functional; conditions: NCI-H460, 48 h
NCI-H322M = experiment: Cytotoxicity against human NCI-H322M cells after 48 hrs by trypan blue dye exclusion assay; format: functional
SW-620 = experiment: Cytotoxicity against human SW620 cells after 48 hrs by trypan blue dye exclusion assay; format: functional; conditions: SW-620, 48 h
HCT-116 = experiment: Cytotoxicity against human HCT116 cells after 48 hrs by trypan blue dye exclusion assay; format: functional; conditions: HCT-116, 48 h
TK-10 = experiment: Cytotoxicity against human TK10 cells after 48 hrs by trypan blue dye exclusion assay; format: functional; conditions: TK-10, 48 h
EKVX = experiment: Cytotoxicity against human EKVX cells after 48 hrs by trypan blue dye exclusion assay; format: functional
MDA-MB-231 = experiment: Cytotoxicity against human MDA-MB-231 cells after 48 hrs by trypan blue dye exclusion assay; format: functional; conditions: MDA-MB-231, 48 h
M14 = experiment: Cytotoxicity against human M14 cells after 48 hrs by trypan blue dye exclusion assay; format: functional; conditions: M14, 48 h
PC-3 = experiment: Cytotoxicity against human PC3 cells after 48 hrs by trypan blue dye exclusion assay; format: functional; conditions: PC-3, 48 h
HCT-15 = experiment: Cytotoxicity against human HCT15 cells after 48 hrs by trypan blue dye exclusion assay; format: functional; conditions: HCT-15, 48 h
786-0 = experiment: Cytotoxicity against human 786-0 cells after 48 hrs by trypan blue dye exclusion assay; format: functional; conditions: 786-0, 48 h
CCRF-CEM = experiment: Cytotoxicity against human CCRF-CEM cells after 48 hrs by trypan blue dye exclusion assay; format: functional
HCC 2998 = experiment: Cytotoxicity against human HCC2998 cells after 48 hrs by trypan blue dye exclusion assay; format: functional; conditions: HCC 2998, 48 h
COLO 205 = experiment: Cytotoxicity against human COLO205 cells after 48 hrs by trypan blue dye exclusion assay; format: functional; conditions: COLO 205, 48 h
LOX IMVI = experiment: Cytotoxicity against human LOXIMVI cells after 48 hrs by trypan blue dye exclusion assay; format: functional
SF-539 = experiment: Cytotoxicity against human SF539 cells after 48 hrs by trypan blue dye exclusion assay; format: functional; conditions: SF-539, 48 h
MDA-MB-435 = experiment: Cytotoxicity against human MDA-MB-435 cells after 48 hrs by trypan blue dye exclusion assay; format: functional; conditions: MDA-MB-435, 48 h
MDA-MB-468 = experiment: Cytotoxicity against human MDA-MB-468 cells after 48 hrs by trypan blue dye exclusion assay; format: functional; conditions: MDA-MB-468, 48 h

Compound `COc1ccc2c(c1)OC1=C(C(=O)OC1)C2c1cc(OC)c2c(c1)OCCO2` (stereo unspecified) has a GI50 (UACC-62) of 39.2 nM, a GI50 (NCI/ADR-RES) of 23.5 nM and a GI50 (KM12) of 42.7 nM. For the same compound, the GI50 (OVCAR-8) was 49.5 nM, the GI50 (HOP-92) was 41.6 nM and the GI50 (OVCAR-4) was 236 nM. The GI50 (SR) was 32.8 nM, the GI50 (SK-MEL-28) was 51.7 nM and the GI50 (SN12C) was 54 nM. The GI50 (HT-29) was 38.4 nM, the GI50 (ACHN) was 171 nM and the GI50 (SNB-75) was 33.7 nM. The GI50 (IGROV-1) was 86 nM, the GI50 (HL-60(TB)) was 23.2 nM and the GI50 (MCF7) was 32.9 nM. It also gave a GI50 (A549) of 52.3 nM, a GI50 (OVCAR-5) of 126 nM and a GI50 (SF-268) of 85.1 nM. It also gave a GI50 (RXF 393) of 18.7 nM, a GI50 (SK-MEL-2) of 48.3 nM and a GI50 (SK-MEL-5) of 32.9 nM. The GI50 (RPMI-8226) was 41 nM, the Activity (Paracentrotus lividus [1]) was “inactive” and the GI50 (BT-549) was 131 nM. The GI50 (NCI-H23) was 38.2 nM, the GI50 (OVCAR-3) was 26.2 nM and the EC (Paracentrotus lividus [2]) was 500 nM. For the same compound, the Activity (Paracentrotus lividus [3]) was “inactive”, the EC (Paracentrotus lividus [4]) was 50 nM and the GI50 (SF-295) was 31.5 nM. It also gave a GI50 (CAKI-1) of 36.3 nM, an EC (Paracentrotus lividus [5]) of 10 nM and a GI50 (A498) of 23.1 nM. It also gave a GI50 (DU-145) of 51.9 nM, a GI50 (NCI-H226) of 71.2 nM and a GI50 (SNB-19) of 50.4 nM. For the same compound, the GI50 (SK-OV-3) was 33.3 nM, the GI50 (NCI-H522) was 37.3 nM and the GI50 (UO-31) was 71.3 nM. The Activity (Paracentrotus lividus [6]) was “inactive”, the GI50 (MOLT-4) was 81.7 nM and the GI50 (U-251) was 85.1 nM. For the same compound, the GI50 [7] was 30.8 nM, the GI50 (NCI-H460) was over 100000 nM and the GI50 (NCI-H322M) was 47.4 nM. The GI50 (SW-620) was 36.2 nM, the GI50 (HCT-116) was 48.3 nM and the GI50 (TK-10) was 36500 nM. The GI50 (EKVX) was 68.2 nM, the GI50 (MDA-MB-231) was 110 nM and the GI50 (M14) was 52.2 nM. The GI50 (PC-3) was 46.9 nM, the GI50 (HCT-15) was 47.5 nM and the GI50 (786-0) was 61.4 nM. The GI50 (CCRF-CEM) was 31.3 nM, the GI50 (HCC 2998) was 75.7 nM and the GI50 (COLO 205) was 30.7 nM. For the same compound, the GI50 (LOX IMVI) was 48.5 nM, the GI50 (SF-539) was 29.3 nM and the GI50 (MDA-MB-435) was 19.7 nM. For the same compound, the GI50 (MDA-MB-468) was 23.1 nM.
